Several values for one entry are separate records, joined by “and”; a condition that tells them apart may be missing. Equal entries are not always repeated.
What was measured:
spermatozoids = assay: Spermicidal action, vitality by eosine-nigrosine, 100 spermatozoids examined; format: cell-based, human (healthy volunteers); set-up: key: living (colourless) cells counted among 100 spermatozoids examined
Method: The various samples of sperm (one drop of sperm per sample) are obtained from healthy volunteers.
One drop of sperm is treated by eosine-nigrosine. A smear is then prepared and 100 spermatozoids examined with a microscope. The dead cells are coloured red, either totally or partially. The living cells are colourless.
The substances studied were Bardac® and chlorohexidine digluconate, tested alone and in association in accordance with the invention. The various stages of the procedure are set out in Tables XV to XVII.
The maximum contact time of the various substances and of the sperm was confined to 3 minutes in order to guarantee the effectiveness of the method under the conditions of use. The concentration of the active solutions in the sperm was limited to 10% in order to reduce the risks of toxicity of the products in respect of the mucosa.

[1] = system: erythrocytes in heparinized bovine blood; assay: In-vitro hemolysis of erythrocytes in heparinized whole blood, absorbance at 413 nm; settings: 1 hour at 37° C.
Method: The effect of the compounds on the in-vitro hemolysis of erythrocytes in heparinized whole blood is monitored by a spectrophotometric method.
Various formulations and concentrations of the test compound are added to heparinized bovine blood and mixed gently in a 1.5 ml microcentrifuge tube. The sample is allowed to incubate for 1 hour at 37° C. At the end of incubation, the samples are removed from the incubator and centrifuged at 2000 rpm for 5 minutes. A 200 μl aliquot of the supernatant is removed from each sample into a 96 well microtiter plate and read at 413 nm. The absorbance of the test sample is compared to the control sample containing phosphate buffered saline, pH 7.2.

HIV-1 virus = assay: Infectivity of HIV-1 treated 10 minutes with product for normal human T lymphocytes (reverse transcriptase activity, ATI, in culture supernatants); format: cell-based
Source text: Infectivity is studied on T lymphocytes obtained from peripheral blood of a healthy human donor and separated on a Ficoll gradient.
The lymphocytes are stimulated for 3 days by phytohaemaglutinin P (PHA P) diluted to 1/500 and cultivated in a complete medium. The blastic cells T are infected by the virus, treated or not, in order to show up residual infectious strength.
The viruses obtained from a supernatant culture of an HIV-1 infected CEM line. This T lymphoblastoid line infected by HIV-1 is used for viral production.
The titer of the supernatant substances used is evaluated after quantitative analysis of the reverse transcriptase activity (ATI) of the virus.
In the following tests, a supernatant substance was used, the ATI of which was 1.8×10^6 cpm/ml.
Preparation of the viral solution: several tubes containing 1 ml viral supernatant, ATI 1.8×10^6 cmp/ml are, concentrated by ultracentrifugation. The resulting virus residues are taken up either by each of the different dilutions of QACs produced in sterile bidistilled water or by water (untreated control virus).
Treatment of viral preparations: the concentrated viral preparations are all treated according to the following procedure:
Treated virus samples: the virus residues concentrated by ultracentrifugation are resuspended in 100, μl of each of the concentrations in terms of products (QACs) studied and incubated for 10 minutes.
Control viral sample: untreated control virus: the product is replaced by 100 μl of sterile bidistilled water.
Following this 10 minute incubation time, the virus present in each sample is rinsed and then reconcentrated by addition of 12 ml of RPMI 1640 medium and ultracentrifugation. The virus residues are then taken up in 1 ml of complete medium and used for infecting normal human T lymphocytes.
Measurement of the infectivity of the samples: 4×10^6 normal human T lymphocytes are infected with each of the treated viral preparations or controls mentioned hereinabove. Infection of the T cells is carried out according to a previously described method (F. Barre Sinoussi et al. Science, 1983, 220:868-871): to sum up, 4×10^6 cells in suspension in 1 ml of complete medium are incubated with 1 ml of each of the treated vial preparations or controls for 1 hour at 37° C.
After two washings using several millilitres of culture medium, the cellular suspensions are adjusted to the concentration of 1×10^6 cells per ml. The day of the infection is regarded as day 0.
Viral production during the course of time is determined by measuring the reverse transcriptase activity present in the culture supernatants using the procedure described below.
This quantitative analysis makes it possible to evaluate the presence of noninactivated residual virus in the staring sample. It is carried out on a basis of 1 ml of culture supernatant taken every 2 or 3 days and ultracentrifuged.
The enzymatic activities are measured in 50 μl of a reaction mixture containing 50 mM Tris pH 7.8, 20 mM MgCl2, 20 mM KCl, 2 mM dithiotreitol, 0.25 OD/ml, oligo dT, 0.25 OD/ml poly rA, 0.1% Triton×100 and 2.5 μCi 3H DTTP.
After incubation for 1 hour at 37° C., the reaction is stopped by the addition of 10 μl of 0.2 M EDTA and the samples are deposited on DE81 membranes.
After several washings using 5% Na2HPO4, then by distilled water, the membranes are dried and the radioactivity measured by means of a p scintillation counter (PACKARD).

CCCCCCCCCC[N+](C)(C)CCCCCCCCCC.[Cl-] [Bardac ®, didecyl dimethyl ammonium chloride]
vitality (living spermatozoids) (spermatozoids; Bardac solution 0.4%, contact 1 min, 5% in the sperm): 10.7 ± 7.6
vitality (living spermatozoids) (spermatozoids; Bardac solution 0.4%, contact 1 min, 10% in the sperm): 5 ± 6.4
vitality (living spermatozoids) (spermatozoids; Bardac solution 0.4%, contact 3 min, 5% in the sperm): 0.8 ± 1.2
vitality (living spermatozoids) (spermatozoids; Bardac solution 0.4%, contact 3 min, 10% in the sperm): 0.8 ± 1
vitality (living spermatozoids) (spermatozoids; Bardac solution 0.6%, contact 1 min, 5% in the sperm): 10.5 ± 9.7
vitality (living spermatozoids) (spermatozoids; Bardac solution 0.6%, contact 1 min, 10% in the sperm): 9.2 ± 12.9
vitality (living spermatozoids) (spermatozoids; Bardac solution 0.6%, contact 3 min, 5% in the sperm): 2.2 ± 4.5
vitality (living spermatozoids) (spermatozoids; Bardac solution 0.6%, contact 3 min, 10% in the sperm): 0.4 ± 0.9
vitality (living spermatozoids) (spermatozoids; Bardac solution 0.8%, contact 1 min, 5% in the sperm): 9.7 ± 10.2
vitality (living spermatozoids) (spermatozoids; Bardac solution 0.8%, contact 1 min, 10% in the sperm): 1.8 ± 2.5
vitality (living spermatozoids) (spermatozoids; Bardac solution 0.8%, contact 3 min, 5% in the sperm): 0
vitality (living spermatozoids) (spermatozoids; Bardac solution 0.8%, contact 3 min, 10% in the sperm): 0
vitality (living spermatozoids) (spermatozoids; Bardac solution 1%, contact 1 min, 5% in the sperm): 0
vitality (living spermatozoids) (spermatozoids; Bardac solution 1%, contact 1 min, 10% in the sperm): 0
vitality (living spermatozoids) (spermatozoids; Bardac solution 1%, contact 3 min, 5% in the sperm): 0
vitality (living spermatozoids) (spermatozoids; Bardac solution 1%, contact 3 min, 10% in the sperm): 0
Concentration at which hemolysis is not observed [1]: 0.001% and 0.0125% and 0.0005%
ATI in supernatant (HIV-1 virus; Bardac 0.0004%, J3): 702 cpm/ml
ATI in supernatant (HIV-1 virus; Bardac 0.0004%, J6): 18136 cpm/ml
ATI in supernatant (HIV-1 virus; Bardac 0.0004%, J10): 117326 cpm/ml
ATI in supernatant (HIV-1 virus; Bardac 0.0004%, J13): 74214 cpm/ml
ATI in supernatant (HIV-1 virus; Bardac 0.0004%, J17): 50674 cpm/ml
ATI in supernatant (HIV-1 virus; Bardac 0.0004%, J20): 22478 cpm/ml
ATI in supernatant (HIV-1 virus; Bardac 0.0004%, J23): 13806 cpm/ml
ATI in supernatant (HIV-1 virus; Bardac 0.0004%, J27): 7800 cpm/ml
ATI in supernatant (HIV-1 virus; Bardac 0.0004%, J30): 4426 cpm/ml
ATI in supernatant (HIV-1 virus; Bardac 0.002%, J3): 464 cpm/ml
ATI in supernatant (HIV-1 virus; Bardac 0.002%, J6): 2472 cpm/ml
ATI in supernatant (HIV-1 virus; Bardac 0.002%, J10): 16066 cpm/ml
ATI in supernatant (HIV-1 virus; Bardac 0.002%, J13): 24902 cpm/ml
ATI in supernatant (HIV-1 virus; Bardac 0.002%, J17): 77754 cpm/ml
ATI in supernatant (HIV-1 virus; Bardac 0.002%, J20): 75554 cpm/ml
ATI in supernatant (HIV-1 virus; Bardac 0.002%, J23): 101394 cpm/ml
ATI in supernatant (HIV-1 virus; Bardac 0.002%, J27): 80560 cpm/ml
ATI in supernatant (HIV-1 virus; Bardac 0.002%, J30): 64692 cpm/ml
ATI in supernatant (HIV-1 virus; Bardac 0.004%, J3): 346 cpm/ml
ATI in supernatant (HIV-1 virus; Bardac 0.004%, J6): 298 cpm/ml
ATI in supernatant (HIV-1 virus; Bardac 0.004%, J10): 160 cpm/ml
ATI in supernatant (HIV-1 virus; Bardac 0.004%, J13): 170 cpm/ml
ATI in supernatant (HIV-1 virus; Bardac 0.004%, J17): 350 cpm/ml
ATI in supernatant (HIV-1 virus; Bardac 0.004%, J20): 218 cpm/ml
ATI in supernatant (HIV-1 virus; Bardac 0.004%, J23): 444 cpm/ml
ATI in supernatant (HIV-1 virus; Bardac 0.004%, J27): 244 cpm/ml
ATI in supernatant (HIV-1 virus; Bardac 0.004%, J30): 264 cpm/ml
ATI in supernatant (HIV-1 virus; Bardac 0.006%, J3): 320 cpm/ml
ATI in supernatant (HIV-1 virus; Bardac 0.006%, J6): 326 cpm/ml
ATI in supernatant (HIV-1 virus; Bardac 0.006%, J10): 204 cpm/ml
ATI in supernatant (HIV-1 virus; Bardac 0.006%, J13): 248 cpm/ml
ATI in supernatant (HIV-1 virus; Bardac 0.006%, J17): 364 cpm/ml
ATI in supernatant (HIV-1 virus; Bardac 0.006%, J20): 180 cpm/ml
ATI in supernatant (HIV-1 virus; Bardac 0.006%, J23): 328 cpm/ml
ATI in supernatant (HIV-1 virus; Bardac 0.006%, J27): 588 cpm/ml
ATI in supernatant (HIV-1 virus; Bardac 0.006%, J30): 196 cpm/ml
ATI in supernatant (HIV-1 virus; Bardac 0.01%, J3): 334 cpm/ml
ATI in supernatant (HIV-1 virus; Bardac 0.01%, J6): 222 cpm/ml
ATI in supernatant (HIV-1 virus; Bardac 0.01%, J10): 1768 cpm/ml
ATI in supernatant (HIV-1 virus; Bardac 0.01%, J13): 1592 cpm/ml
ATI in supernatant (HIV-1 virus; Bardac 0.01%, J17): 190 cpm/ml
ATI in supernatant (HIV-1 virus; Bardac 0.01%, J20): 390 cpm/ml
ATI in supernatant (HIV-1 virus; Bardac 0.01%, J23): 1328 cpm/ml
ATI in supernatant (HIV-1 virus; Bardac 0.01%, J27): 780 cpm/ml
ATI in supernatant (HIV-1 virus; Bardac 0.01%, J30): 1000 cpm/ml

[H]/N=C(\N/C(=N/[H])NCCCCCCNC(=N)NC(=N)Nc1ccc(Cl)cc1)Nc1ccc(Cl)cc1 [Chlorhexidine, chlorohexidine digluconate, reference compound]
vitality (living spermatozoids) (spermatozoids; Chlorohexidine digluconate solution 0.5%, contact 1 min, 5% in the sperm): 77 ± 10.8
vitality (living spermatozoids) (spermatozoids; Chlorohexidine digluconate solution 0.5%, contact 1 min, 10% in the sperm): 77.2 ± 5.6
vitality (living spermatozoids) (spermatozoids; Chlorohexidine digluconate solution 0.5%, contact 3 min, 5% in the sperm): 78 ± 5.7
vitality (living spermatozoids) (spermatozoids; Chlorohexidine digluconate solution 0.5%, contact 3 min, 10% in the sperm): 75.5 ± 4.8
Concentration at which hemolysis is not observed ([1]; component of test compound Bardac 22 + Chlorohexidine Gluconate + Tergitol NP-9): 0.001%
Concentration at which hemolysis is not observed ([1]; component of test compound Bardac 22 + Chlorohexidine Gluconate): 0.0125%
ATI in supernatant (HIV-1 virus; Chlorhexidine 0.005%, J3): 360 cpm/ml
ATI in supernatant (HIV-1 virus; Chlorhexidine 0.005%, J10): 580 cpm/ml
ATI in supernatant (HIV-1 virus; Chlorhexidine 0.005%, J30): 720 cpm/ml
ATI in supernatant (HIV-1 virus; Chlorhexidine 0.01%, J10): 200 cpm/ml
ATI in supernatant (HIV-1 virus; Chlorhexidine 0.01%, J13): 250 cpm/ml
ATI in supernatant (HIV-1 virus; Chlorhexidine 0.01%, J17): 230 cpm/ml
ATI in supernatant (HIV-1 virus; Chlorhexidine 0.01%, J27): 420 cpm/ml

Reference: patent US7381521B2, “Anti-pathogenic composition useful in blood preservation” (Altachem Pharma Ltd., priority 2001, dated 2008)
